Experiment [1] relates to INS-1E cells. Nature of the experiment: Glucose stimulated insulin secretion assay (GSIS) in INS-1E cells. Type of experiment: cell-based, rat. The conditions noted are these: for % inhibition of Insulin (Average Inhibition (%)) / pIC50: INS-1E cell line; for pIC50 / inhibition at 10 µM: Rattus norvegicus; for inhibition at 10 µM: INS-1E cells. As for the experimental part:
(§1) INS-1E, rat pancreatic tumor (insulinoma) cells were used in the GSIS assay. INS-1E cells were thawed and incubated in culture medium (CM) (RPMI 1640+Glucose q.s., HEPES 25 mM, Na-Pyruvat 1 mM, 2-Mercaptoethanol 50 μM, Fetal Calf Serum; heat inactivated (FCS) 10%, Penicillin/Streptomycin 100 U/ml) at 37° C.; 5% CO2 in a humidified atmosphere. 96 welled plates are coated with Matrigel by incubating the plates with 1 ml pre-diluted 1:10 with cold basal medium with 100 μl/well at 37° C. for 1 hour. Matrigel is then removed and replaced with 100 μl CM. Cells are then seeded into the wells as 70 000 cells/well. CM is refreshed with 200 μl fresh CM on the third day. CM is refreshed again with 200 μl fresh CM on the sixth day. GSIS assay is performed on the seventh day and cells in wells are washed with PKrebs®BSA and incubated with 100 μL/well for 2 h. Secretion plates are placed in an incubator at 37° C., 5% C02 and saturated humidity for 60 min. Meanwhile, lysis solution is prepared by adding 1 tablet of protease inhibitor/10 mL TETG solution and kept at 4° C. until the end of the experiment. The other incubation buffers are prepared without adding pharmacological compounds, aliquoted and then placed in a water bath at 37° C. The samples are prepared including negative (βKrebs®B0=0 mM Glucose) and positive controls (PKrebs®B20=20 mM Glucose) and each compound to be tested is diluted in DMSO as having a series of final concentration including 10.00, 4.00, 1.60, 0.64, 0.26, 0.10, 0.04, 0.02 μM.
(§2) After 2 hours of starvation, glucose stimulation and treatments are initiated. KRB Buffer from cells is removed by pipetting. The solutions are homogenized and the cells are treated with 90 µL/well. 10 μl from 10-fold compound dilution is added to the assay plate (final 100 μl/well) according to the following layout for each compound to be tested.
(§3) Incubation time is 40 minutes. Plates are placed in an incubator at 37° C., 5% CO2 and saturated humidity. After incubation, 80 μL of supernatants are collected without disrupting the cell layer and stored at 4° C. or on ice until centrifugation. Remaining medium are removed from each well and 100 μL/well of cold lysis solution is added and incubated for minimum 2 minutes at room temperature. Cell lysis is observed under microscope and waited for maximum for 5 more minutes until the lysis is complete. Cell lysates are collected and all samples including supernatants are centrifuged at 700×g, 5 min at 4° C. 30 μL of each samples are transferred into aliquots for ELISA. ELISA is performed with HTRF Assay Kit comprising an insulin high range kit supplied by Cisbio/Perkin Elmer. 5 μl of each Insulin standard and 5 μl of either supernatant or lysate are transferred on HTRF plate. 40 μl/well of Anti-insulin—XL665 and 20 μl/well of Anti-insulin—EU are added to each well and the plate is read on HTRF compatible reader (fluorescence 620 nm & 665 nm).

The subject of experiment [2] is EndoC-βH1 Cell Line. Nature of the experiment: GSIS assay in EndoC-βH1 cell line. The format is cell-based. As for the experimental part:
as §1, §2, §3
GSIS experiments were also performed in other cell lines, e.g., EndoC-βH1, a canonical cell line for screening new therapeutic compounds.

pIC50: −log10 of the molar value.

This note sets out measurements from patent publication US20250360142A1, “NOVEL ATP-SENSITIVE POTASSIUM CHANNEL POTENTIATORS, THEIR PREPARATION AND USE” (RHYTHM PHARMACEUTICALS, INC., priority 2022, published 2025).

One may read the pIC50 as −log10 of the IC50, conventionally taken in molar units. A lower pIC50 goes with a high IC50. As usually defined, the inhibition is the drop in the measured response relative to a control, in per cent.

Take `C[C@@H]1CC1NC1=NS(=O)(=O)c2cc(F)c(Cl)cc2N1` (mixture of isomers) [Compound 25, (rac)-trans-6-chloro-7-fluoro-3-((2-methylcyclopropyl)amino)-4H-benzo[e][1,2,4|thiadiazine 1,1-dioxide]: in experiment [1], the “% inhibition of Insulin (Average Inhibition (%))” value is listed as “C (C is equal to 10-25% inhibition)”. This compound also had a pIC50 in experiment [2] of 5.70 to 6.00.

For the compound `O=S1(=O)N=C(NC23CC(C2)C3)Nc2ccc(F)cc21` [Compound 1, 3-(bicyclo[1.1.1]pentan-1-ylamino)-7-fluoro-4H-benzo[e][1,2,4] thiadiazine 1,1-dioxide], the pIC50 in experiment [1] was 6.00 to 6.30; in experiment [2], over 6.30. Also, the inhibition at 10 µM in experiment [1] is at least 50%.

Consider `O=S1(=O)N=C(NC23CC(F)(C2)C3)Nc2cc(Cl)c(F)cc21` [Compound 19, 6-chloro-7-fluoro-3-((3-fluorobicyclo[1.1.1]pentan-1-yl)amino)-4H-benzo[e][1,2,4]thiadiazine 1,1-dioxide], for which the “% inhibition of Insulin (Average Inhibition (%))” value in experiment [1] was “C (C is equal to 10-25% inhibition)”. In experiment [2], this compound showed a pIC50 of at most 5.70.

In the case of `O=S1(=O)N=C(NC2CC23CCC3)Nc2cc(Cl)c(F)cc21` (stereo not drawn) [Compound 15, 6-chloro-7-fluoro-3-(spiro[2.3]hexan-1-ylamino)-4H-benzo[e][1,2,4]thiadiazine 1,1-dioxide], the pIC50 in experiment [1] and in experiment [2] was over 6.30 throughout.

As to `O=S1(=O)N=C(NC23CC(C2)C3)Nc2cc(Cl)c(F)cc21` [Compound 14, 3-(bicyclo[1.1.1]pentan-1-ylamino)-6-chloro-7-fluoro-4H-benzo[e][1,2,4] thiadiazine 1,1-dioxide], in experiment [1], the pIC50 is over 6.30 and the inhibition at 10 µM was at least 50%. In addition, the pIC50 in experiment [2] is over 6.30.
